Test system: sweat secretion
Experiment: Induced sweat rate profiles stimulated by cholinergic agonist hydrogels under iontophoresis, measured with a sweat rate sensor
Type: in vivo, human
Conditions: iontophoresis 2 mA for 5 minutes
Protocol: Bars represent values for response latency (time in seconds to onset of secretion from start of iontophoresis), response duration (total time in minutes of secretion above baseline, measurements stopped at 60 minutes), peak secretory rate in response to stimulation, time to reach peak secretory rate and time spent secreting at the peak rate. […] By modulating the formulation of the compounds that are loaded into the iontophoresis hydrogel, we can achieve different patterns of sweat secretion rate. We characterized the induced sweat rate profiles as stimulated by three different cholinergic agonist hydrogels (acetylcholine, methacholine and pilocarpine) each at two different concentrations. For this characterization step, 2 mA of current over duration of 5 minutes was applied using a pair of ring-shaped electrodes (WR Medical Electronics Co., MN, area: 4.3 cm2), with the sweat rate sensor (Q-sweat, WR Medical Electronics Co., MN) mounted on the positive electrode, sealing the stimulated area. […] This pattern is suitable for the case where periodic sweat sampling with short intervals is required. […] To retrieve the induced sweat rate information, immediately after each stimulation step, the stimulated area was wiped dry and sealed with the sweat rate sensor. After each characterization step, the same pair of hydrogels were reused for the subsequent stimulation. […]

| Compound | share of the secretion period spent at about the peak rate |
| --- | --- |
| CC(=O)OC(C)C[N+](C)(C)C (centres unmarked) [methacholine] | about half |
| CC[C@@H]1C(=O)OC[C@@H]1Cc1cncn1C [pilocarpine] | about half |

Source: patent US20180070870A1, “Autonomous Sweat Extraction and Analysis Using a Fully-Integrated Wearable Platform” (The Board of Trustees of the Leland Stanford Junior …, priority 2016, published 2018)
